Laboratory results from patent US7795255B2, “Rigidified compounds for modulating heparanase activity” (InSight Biopharmaceuticals Ltd., priority 2005, dated 2010).

Key:
[1] = target: T1, recombinant human pro-heparanase (H60) (Homo sapiens, UniProt Q9Y251); test: Pro-heparanase (H60) activation in a cell-based assay; conditions: inhibition of pro-heparanase activation in CHO cells; NI = no inhibition
T1 construct: Heparanase maturation involves the removal of the signal peptide, transforming the 65 kDa pre-pro-heparanase into a 60 kDa pro-heparanase; made in house
T1 sequence (Q9Y251 36-543): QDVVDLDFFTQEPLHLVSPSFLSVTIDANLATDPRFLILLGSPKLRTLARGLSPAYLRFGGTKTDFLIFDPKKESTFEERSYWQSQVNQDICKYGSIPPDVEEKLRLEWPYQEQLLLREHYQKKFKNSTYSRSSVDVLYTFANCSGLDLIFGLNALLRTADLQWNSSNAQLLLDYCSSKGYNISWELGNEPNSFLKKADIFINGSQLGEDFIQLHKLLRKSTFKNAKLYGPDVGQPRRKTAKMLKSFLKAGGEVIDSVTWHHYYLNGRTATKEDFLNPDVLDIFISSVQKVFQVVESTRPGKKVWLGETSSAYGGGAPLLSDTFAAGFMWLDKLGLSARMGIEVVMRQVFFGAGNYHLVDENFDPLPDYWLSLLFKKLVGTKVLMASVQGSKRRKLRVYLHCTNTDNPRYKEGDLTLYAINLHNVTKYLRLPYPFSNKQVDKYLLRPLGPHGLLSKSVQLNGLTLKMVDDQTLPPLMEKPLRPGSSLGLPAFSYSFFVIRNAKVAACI
Experimental: Pro-heparanase (H60) activation in a cell-based assay: Chinese hamster ovary (CHO) cells were grown in complete F12 medium supplemented with 10% fetal calf serum (FCS). […] The plates were incubated for 24 hours in a 37° C. humidified incubator with 5% CO2. […] The plates were further incubated for additional 4 hours. The pro-heparanase was allowed to internalize by the cells and further processed to generate the active 53 kDa heparanase. At the end of the incubation, the cells were lysed by three consecutive cycles of freezing and thawing in a −80° C. freezer and a 37° C. shaker.
The rigidified compounds described herein were tested for inhibition of pro-heparanase activation in the cell-based assay described above.

[2] = target: T2, vascular endothelial growth factor (VEGF) (Homo sapiens, UniProt P15692); test: ELISA for determination of binding of VEGF to heparin; conditions: for IC50: inhibition of VEGF binding to heparin, NI = no inhibition; for inhibition of VEGF binding to heparin: inhibition towards both growth factors
T2 sequence (P15692 27-191 isoform P15692-4): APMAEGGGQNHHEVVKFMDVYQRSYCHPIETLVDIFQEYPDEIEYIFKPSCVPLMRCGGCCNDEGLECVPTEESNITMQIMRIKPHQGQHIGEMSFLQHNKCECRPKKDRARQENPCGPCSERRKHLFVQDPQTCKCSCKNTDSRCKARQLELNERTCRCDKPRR
Experimental: Enzyme-linked immunosorbent assay (ELISA) for determination of binding of vascular endothelial growth factor (VEGF) to heparin: 96-well microplates were coated for 2 hours. at 23-25° C. with 5 μg/ml heparin-albumin (Rimon Biotech) and blocked with 1% bovine serum albumin (BSA) in phosphate buffer (PBS) with 0.05% Tween and 0.01% thimerosal for 2 hours. VEGF was added to the plates at a concentration of 10 ng/ml and the plates were thereafter incubated for 45 minutes at 23-25° C. The amount of VEGF bound to heparin was detected using anti-VEGF monoclonal antibody (Sigma Cat. No. V4758) at a concentration of 0.26 μg/ml and secondary antibodies Sheep anti-mouse IgG linked to horseradish peroxidase (1:2000) using 3,3′,5,5′-tetramethylbenzidine (TMB, Pierce Cat. No. 34021) as a substrate for peroxidase. The plates were read at 450 nm with a reference wavelength of 630 nm using a VERSAmax plate reader. […] Percent inhibition was calculated as compared with a control pre-incubated with a solution of 1% DMSO and the results are presented in Table 3 below.

[3] = target: β-FGF (Homo sapiens, UniProt P09038); test: ELISA for determination of binding of β-FGF to heparin; conditions: for IC50: inhibition of β-FGF binding to heparin, NI = no inhibition; for inhibition of β-FGF binding to heparin: inhibition towards both growth factors
β-FGF, sequence (P09038 143-288): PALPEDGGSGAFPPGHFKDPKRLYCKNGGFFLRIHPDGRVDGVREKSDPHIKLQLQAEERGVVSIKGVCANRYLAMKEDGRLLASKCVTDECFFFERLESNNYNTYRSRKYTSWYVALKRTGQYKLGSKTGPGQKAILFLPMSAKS
Experimental: ELISA for determination of binding of β-FGF to heparin: 96-well microplates were coated for 2 hours at 23-25° C. with 5 μg/ml heparin-albumin (Rimon Biotech) and blocked with 1% BSA in PBS, with 0.05% Tween, and 0.01% thimerosal for 2 hours. β-FGF was added to the plates at a concentration of 10 ng/ml and plates were incubated for 45 minutes at 23-25° C. The amount of β-FGF bound to heparin was detected using anti-FGF monoclonal antibody (Sigma Cat. No. F6162) at a concentration of 2.5 ng/ml and secondary antibodies Sheep anti-mouse IgG linked to horseradish peroxidase (1:3000) TMB (Pierce Cat. No. 34021) was used as a substrate for peroxidase. The plates were read at 450 nm with a reference wavelength of 630 nm using a VERSAmax plate reader.

| Compound | IC50 [1] [nM] | IC50 [2] [nM] | IC50 [3] [nM] | inhibition of VEGF binding to heparin [2] | inhibition of β-FGF binding to heparin [3] |
| --- | --- | --- | --- | --- | --- |
| 4-[2-(4-Nitro-phenyl)-4,6-dioxo-6H-1-oxa-3b,5-diaza-cyclopenta[a]pentalen-5-yl]-butyric acid ethyl ester [Compound 30] | 3900 | 100 | – | – | – |
| CCOC(=O)CCCN1C(=O)c2cc3oc(-c4ccc([N+](=O)[O-])cc4)cc3n2C1=S [Compound 1, ethyl 4-[2-(4-nitro-phenyl)-6-oxo-4-thioxo-6H-1-oxa-3b,5-diaza-cyclopenta[a]pentalen-5-yl]-butyric acid ethyl ester] | – | 130 | 140 | – | – |
| CON(C)C(=O)CCCN1C(=O)c2cc3oc(-c4ccc([N+](=O)[O-])cc4)cc3n2C1=S [Compound 3, N-methoxy-N-methyl-4-[2-(4-nitro-phenyl)-6-oxo-4-thioxo-6H-1-oxa-3b,5-diaza-cyclopenta[a]pentalen-5-yl]-butyramide] | – | 250 | 90 | sub-micromolar | sub-micromolar |
| CCOC(=O)CCCN1C(=O)c2cc3oc(-c4ccc(Cl)cc4)cc3n2C1=S [Compound 4, ethyl 4-[2-(4-chloro-phenyl)-6-oxo-4-thioxo-6H-1-oxa-3b,5-diaza-cyclopenta[a]pentalen-5-yl]-butyric acid ethyl ester] | 760 | 130 | 60 | – | – |
| CCOC(=O)CC(C)(C)CN1C(=O)c2cc3oc(-c4ccc([N+](=O)[O-])cc4)cc3n2C1=S [Compound 7, 3,3-dimethyl-4-[2-(4-nitro-phenyl)-6-oxo-4-thioxo-6H-1-oxa-3b,5-diaza-cyclopenta[a]pentalen-5-yl]-butyric acid ethyl ester] | 2600 | 100 | 50 | sub-micromolar | sub-micromolar |
| CC(C)(CC(=O)O)CN1C(=O)c2cc3oc(-c4ccc([N+](=O)[O-])cc4)cc3n2C1=S [Compound 8, 3,3-Dimethyl-4-[2-(4-nitro-phenyl)-6-oxo-4-thioxo-6H-1-oxa-3b,5-diaza-cyclopenta[a]pentalen-5-yl]-butyric acid] | 780 | – | – | – | – |
| CC(C)(CC(=O)NO)CN1C(=O)c2cc3oc(-c4ccc([N+](=O)[O-])cc4)cc3n2C1=S [Compound 9, N-hydroxy-3,3-dimethyl-4-[2-(4-nitro-phenyl)-6-oxo-4-thioxo-6H-1-oxa-3b,5-diaza-cyclopenta[a]pentalen-5-yl]-butyramide] | 170 | – | – | – | – |
| CCOC(=O)CC(C)(C)CN1C(=O)c2cc3oc(-c4ccc(Cl)cc4)cc3n2C1=S [Compound 10, 4-[2-(4-Chloro-phenyl)-6-oxo-4-thioxo-6H-1-oxa-3b,5-diaza-cyclopenta[a]pentalen-5-yl]-3,3-dimethyl-butyric acid ethyl ester] | 1500 | 170 | 200 | sub-micromolar | sub-micromolar |
| CC(C)(CC(=O)On1nnc2ccccc2c1=O)CN1C(=O)c2cc3oc(-c4ccc(Cl)cc4)cc3n2C1=S [Compound 12, 4-[2-(4-Chloro-phenyl)-6-oxo-4-thioxo-6H-1-oxa-3b,5-diaza-cyclopenta[a]pentalen-5-yl]-3,3-dimethyl-butyric acid 4-oxo-4H-benzo[d][1,2,3]triazin-3-yl ester] | – | 260 | 160 | sub-micromolar | sub-micromolar |
| CCOP(=O)(CCCN1C(=O)c2cc3oc(-c4ccc(Cl)cc4)cc3n2C1=S)OCC [Compound 27, {3-[2-(4-chloro-phenyl)-6-oxo-4-thioxo-6H-1-oxa-3b,5-diaza-cyclopenta[a]pentalen-5-yl]-propyl}-phosphonic acid diethyl ester] | 260 | 300 | – | – | – |

More lines, now with the values ahead:

| IC50 [1] [nM] | IC50 [2] [nM] | IC50 [3] [nM] | inhibition of VEGF binding to heparin [2] | inhibition of β-FGF binding to heparin [3] | Compound |
| --- | --- | --- | --- | --- | --- |
| 1400 | 550 | 220 | sub-micromolar | sub-micromolar | CCN(CC)C(=O)CC(C)(C)CN1C(=O)c2cc3oc(-c4ccc(Cl)cc4)cc3n2C1=S [Compound 13, 4-[2-(4-Chloro-phenyl)-6-oxo-4-thioxo-6H-1-oxa-3b,5-diaza-cyclopenta[a]pentalen-5-yl]-N,N-diethyl-3,3-dimethyl-butyramide] |
| 120 | 260 | 470 | sub-micromolar | sub-micromolar | CN(C)CCNC(=O)CC(C)(C)CN1C(=O)c2cc3oc(-c4ccc(Cl)cc4)cc3n2C1=S [Compound 14, 4-[2-(4-Chloro-phenyl)-6-oxo-4-thioxo-6H-1-oxa-3b,5-diaza-cyclopenta[a]pentalen-5-yl]-N-(2-dimethylamino-ethyl)-3,3-dimethyl-butyramide] |
| 160 | 180 | 440 | sub-micromolar | sub-micromolar | CN(C)CCCNC(=O)CC(C)(C)CN1C(=O)c2cc3oc(-c4ccc(Cl)cc4)cc3n2C1=S [Compound 15, 4-[2-(4-Chloro-phenyl)-6-oxo-4-thioxo-6H-1-oxa-3b,5-diaza-cyclopenta[a]pentalen-5-yl]-N-(3-dimethylamino-propyl)-3,3-dimethyl-butyramide] |
| 150 | 420 | 870 | sub-micromolar | sub-micromolar | CC(C)(CC(=O)N1CCOCC1)CN1C(=O)c2cc3oc(-c4ccc(Cl)cc4)cc3n2C1=S [Compound 17, 2-(4-Chloro-phenyl)-5-(2,2-dimethyl-4-morpholin-4-yl-4-oxo-butyl)-4-thioxo-4,5-dihydro-1-oxa-3b,5-diaza-cyclopenta[a]pentalen-6-one] |
| 16000 | – | – | – | – | CCOC(=O)CCCN1C(=O)c2cc3oc(Oc4ccc([N+](=O)[O-])cc4)cc3n2C1=S [Compound 33, ethyl 4-[2-(4-nitro-phenoxy)-6-oxo-4-thioxo-6H-1-oxa-3b,5-diaza-cyclopenta[a]pentalen-5-yl]-butyric acid ethyl ester] |
| – | 22500 | 11500 | – | – | CCOC(=O)CCCN1C(=O)c2cc3oc4ccc([N+](=O)[O-])cc4c3n2C1=S [Compound 38, ethyl 4-[2,3-(3-nitro-phenyl)-6-oxo-4-thioxo-6H-1-oxa-3b,5-diaza-cyclopenta[a]pentalen-5-yl]-butyric acid ethyl ester] |
| 25000 | – | – | – | – | CCOC(=O)CCCn1c(=S)sc2c(N)snc21 [Compound 43, ethyl 4-(3-amino-5-thioxo-thiazolo[4,5-c]isothiazol-6-yl)-butyric acid ethyl ester] |
| 7000 | – | – | – | – | CCOC(=O)CCCn1c(=S)sc2c(I)snc21 [Compound 44, ethyl 4-(3-iodo-5-thioxo-thiazolo[4,5-c]isothiazol-6-yl)-butyric acid ethyl ester] |
| – | 15000 | – | – | – | CCOC(=O)CCCn1c(=S)sc2c(-c3ccc(-c4ccc([N+](=O)[O-])cc4)o3)snc21 [Compound 45, 4-{3-[5-(4-nitro-phenyl)-furan-2-yl]-5-thioxo-thiazolo[4,5-c]isothiazol-6-yl}-butyric acid ethyl ester] |
